According to PubChem BioAssay AID2060493 (Molecular Pharmacology Branch, DTP, NCI, 2025):

Test system: 616215-338-R-J1-PDC tumor spheroids, viability
Assay: Anticancer human tumor 616215-338-R-J1-PDC patient-derived colon adenocarcinoma cell line growth inhibition [GQUAD]
Settings: spheroids with HUVEC and MSC; for IC50: curve of first compound; for viability, T/C: stronger effect = lower value
Source text: DNA G-quadruplex Stabilizer Agents in Combinations in Complex Spheroids
A high-throughput screen of multi-cell type tumor spheroids was designed to identify active combinations of DNA G-quadruplex stabilizer agents and targeted small molecules. Complex spheroids include a stromal component modeled by human endothelial cells (HUVEC) and fibroblasts modeled by human mesenchymal stem cells (MSCs). The concentration ranges selected for each drug and investigational agent were based upon clinically achievable concentrations if the clinical Cmax of the agent was known.
Compounds. The drugs and investigational agents: pidnarulex (CX-5461; NSC782164), APTO-253 (NSC789042), BRACO-19 (NSC847499), peposertib (NSC802822), ceralasertib (NSC780249), elimusertib (NSC800525), camonsertib (NSC841442), AZD-1390 (NSC803789), olaparib (NSC753686), talazoparib (NSC767125), ART-558 (NSC835418), sotorasib (NSC818433), MRTX-1133 (NSC836407), SN-38 (NSC673596), topotecan (NSC609699), etoposide (NSC141540), doxorubicin (NSC123127), gemcitabine (NSC613327), 5-fluorouracil (NSC19893), paclitaxel (NSC125973), vemurafenib (NSC761431), panobinostat (NSC761190), R-306465 (JNJ-16241199; NSC773264), adavosertib (NSC754352), TP-3654 (NSC805149), carboplatin (NSC241240), KSQ-4279 (NSC840948), and staurosporine (NSC755774) were obtained from the National Cancer Institute (NCI) Developmental Therapeutics Program Chemical Repository (34). The FDA-approved anticancer drug set is available from the NCI Developmental Therapeutics Program. […] The stock solutions were prepared in dimethyl sulfoxide (DMSO, Sigma-Aldrich, St. Louis, MO, cat. D2650) at 800-fold the tested concentration and stored at -70 degrees C prior to their use. All drugs and investigational agents were tested over a range starting from a high concentration at or near the clinical Cmax and decreasing in half-log increments. If the clinical Cmax for an agent had not been determined, the highest concentration tested was 10 microM.
2.3 Cell Culture. All cells were maintained in an incubator at 37 degrees C and 5% CO2 with 95% humidity. The PDC lines were cultured according to standard operating procedures established by the NCI PDMR. All PDCs were thawed and cultured in Matrigel-coated flasks prepared with a working solution of 1X Ham's F-12 nutrient mix, without supplementation (Invitrogen, cat. 11765054), 100 U/mL penicillin-streptomycin (Invitrogen, cat. 15140122), and 2.5% Matrigel (Corning Inc., cat. 354248) for the first three passages. The 857933-349-R-J2-PDC line was cultured in 6C/Colon 1B media, which includes advanced DMEM/F-12 (Thermo Fisher Scientific, cat. 12634028), 10 mM HEPES (Thermo Fisher Scientific, cat. 15630080), 1X GlutaMAX supplement (Thermo Fisher Scientific, cat. 35050061), 0.1 mg/mL primocin (InvivoGen, cat. ant-pm-2), 10% defined fetal bovine serum, heat inactivated (HyClone Laboratories Inc., cat. SH30070.03HI), 50% L-WRN conditioned media (ATCC, cat. CRL-3276), 1.25 mM N-Acetyl-L-cysteine (Sigma-Aldrich, cat. A9165), 10 mM nicotinamide (Sigma-Aldrich, cat. N0636), 1X B-27 supplement (Thermo Fisher Scientific, cat. 17504044), 1X N-2 supplement (Thermo Fisher Scientific, cat. 17502048), 10 microM Y-27632 dihydrochloride (Tocris Bioscience, cat. 1254), and 50 ng/mL human EGF recombinant protein (Thermo Fisher Scientific, cat. PHG0311). The 485176-168-R4-J1-PDC line was cultured in Panc media, which includes all 6C/Colon 1B media components plus 100 ng/mL human FGF-10 (Thermo Fisher Scientific, cat. 100-26), 500 nM SB-431542 (Selleckchem, cat. S1067), and gastrin (Tocris, cat. 3006).
[…]
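Also: spheroids exposed to agents for 7 days before readout.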
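For viability, T/C in this document: percent viability relative to DMSO vehicle control wells taken as 100%.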

Cc1cccc(N(C)C(=O)C2C(O)CCN2c2nc(C)cc(C(F)(F)F)c2C#N)c1 (configuration not stated) + Cc1[nH]c2ccc(F)cc2c1-c1nc2c3cccnc3c3ncccc3c2[nH]1
IC50 (second compound 0.0316 µM): > 10 µM | IC50 (second compound 0.1 µM): > 10 µM | IC50 (second compound 0.316 µM): > 10 µM | IC50 (second compound 1 µM): > 10 µM | IC50 (second compound 3.16 µM): > 10 µM | IC50 (second compound 10 µM): > 10 µM | viability, T/C (second compound 0.0316 µM, first compound 0.0316 µM): 92.8% | viability, T/C (second compound 0.0316 µM, first compound 0.1 µM): 102% | viability, T/C (second compound 0.0316 µM, first compound 0.316 µM): 93.7% | viability, T/C (second compound 0.0316 µM, first compound 1 µM): 87.6% | viability, T/C (second compound 0.0316 µM, first compound 3.16 µM): 101% | viability, T/C (second compound 0.0316 µM, first compound 10 µM): 104% | viability, T/C (second compound 0.1 µM, first compound 0.0316 µM): 99.4% | viability, T/C (second compound 0.1 µM, first compound 0.1 µM): 93.8% | viability, T/C (second compound 0.1 µM, first compound 0.316 µM): 99.1% | viability, T/C (second compound 0.1 µM, first compound 1 µM): 104% | viability, T/C (second compound 0.1 µM, first compound 3.16 µM): 99.6% | viability, T/C (second compound 0.1 µM, first compound 10 µM): 95.5% | viability, T/C (second compound 0.316 µM, first compound 0.0316 µM): 91% | viability, T/C (second compound 0.316 µM, first compound 0.1 µM): 92.1% | viability, T/C (second compound 0.316 µM, first compound 0.316 µM): 99.4% | viability, T/C (second compound 0.316 µM, first compound 1 µM): 100% | viability, T/C (second compound 0.316 µM, first compound 3.16 µM): 97.6% | viability, T/C (second compound 0.316 µM, first compound 10 µM): 96.6% | viability, T/C (second compound 1 µM, first compound 0.0316 µM): 103% | viability, T/C (second compound 1 µM, first compound 0.1 µM): 92% | viability, T/C (second compound 1 µM, first compound 0.316 µM): 96.7% | viability, T/C (second compound 1 µM, first compound 1 µM): 93.9% | viability, T/C (second compound 1 µM, first compound 3.16 µM): 105% | viability, T/C (second compound 1 µM, first compound 10 µM): 103% | viability, T/C (second compound 3.16 µM, first compound 0.0316 µM): 94.4% | viability, T/C (second compound 3.16 µM, first compound 0.1 µM): 87% | viability, T/C (second compound 3.16 µM, first compound 0.316 µM): 96.5% | viability, T/C (second compound 3.16 µM, first compound 1 µM): 91.6% | viability, T/C (second compound 3.16 µM, first compound 3.16 µM): 104% | viability, T/C (second compound 3.16 µM, first compound 10 µM): 107% | viability, T/C (second compound 10 µM, first compound 0.0316 µM): 108% | viability, T/C (second compound 10 µM, first compound 0.1 µM): 94.4% | viability, T/C (second compound 10 µM, first compound 0.316 µM): 96.2% | viability, T/C (second compound 10 µM, first compound 1 µM): 88% | viability, T/C (second compound 10 µM, first compound 3.16 µM): 107% | viability, T/C (second compound 10 µM, first compound 10 µM): 86.5%
